The record followed here is ChEMBL document CHEMBL1201862, “PubChem BioAssay data set” (2004).

Some test systems named below: SF-268; HL-60; NCI-H522; RPMI-8226; HOP-62; K562; OVCAR-4; OVCAR-5; TK-10; KM12; EKVX; SNB-19; HCT-15; IGROV-1; M14; UACC-257; CCRF-CEM; RXF 393.
What all share (assay): growth of human tumour cells (NCI), 48 h

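These data come from cells grown in 96-well plates and exposed to compound for 48 hours at five concentrations. GI50 is the concentration that inhibits growth by half.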 The source made the active and inactive calls. Rule as the data show it: active = GI50 up to about 1.1 µM and inactive = higher.

`CCOC(=O)CNC(=O)c1nc[nH]c1/N=N/N(C)C`: the GI50 in the experiment on SF-268, in the experiment with HL-60, in the experiment on NCI-H522, in the experiment on RPMI-8226, in the experiment with HOP-62 and in the experiment with K562 was > 100 µM (inactive) each time. Further, the GI50 in the experiment on OVCAR-4, in the experiment with OVCAR-5, in the experiment on TK-10, in the experiment with KM12, in the experiment on EKVX and with SNB-19 was > 100 µM (inactive) throughout. The GI50 with HCT-15 was more than 100 µM; with IGROV-1 it was > 100 µM (inactive); with M14 it was > 100 µM (inactive); in the experiment on UACC-257, > 100 µM (inactive); with CCRF-CEM, > 100 µM (inactive).
For `CC1=C/C(=C2/N=C(N(C)C)SS2)C(C)=N1.[O-][Cl+3]([O-])([O-])O`, the GI50 with SF-268 was > 100 µM (inactive); in the experiment on HL-60, > 100 µM (inactive); in the experiment on NCI-H522, 4.33 µM (inactive); in the experiment with RPMI-8226, > 100 µM (inactive); in the experiment with HOP-62, > 100 µM (inactive); with K562, 42.1 µM (inactive). For the same molecule, the GI50 was 71.3 µM (inactive) in the experiment with OVCAR-4; > 100 µM (inactive) with OVCAR-5; > 100 µM (inactive) in the experiment on TK-10; > 100 µM (inactive) in the experiment with KM12; > 100 µM (inactive) in the experiment with EKVX; > 100 µM (inactive) with RXF 393. Besides, the GI50 in the experiment with SNB-19 was > 100 µM (inactive); in the experiment with HCT-15, more than 100 µM; with IGROV-1 it was > 100 µM (inactive); in the experiment with M14, > 100 µM (inactive); in the experiment with UACC-257, > 100 µM (inactive).
As for `COc1nc2c(nc(N)n2C2OC(CO)C(O)C(O)C2O)c(=O)[nH]1` (configuration not stated), the GI50 in the experiment with SF-268, in the experiment with HL-60, in the experiment on NCI-H522, in the experiment on HOP-62, in the experiment with K562 and in the experiment on OVCAR-4 was > 100 µM (inactive) in each case. Further, the GI50 with TK-10, in the experiment on KM12, in the experiment with EKVX, in the experiment with RXF 393, in the experiment on SNB-19 and in the experiment with IGROV-1 was > 100 µM (inactive) in each case. Also, the GI50 in the experiment with M14, in the experiment with UACC-257 and in the experiment with CCRF-CEM was > 100 µM (inactive) in each case.
On to `COc1ccc(OC)c2c(C(=O)O)c(Cc3ccccc3)ccc12`, for which the GI50 in the experiment on SF-268, with HL-60, in the experiment with NCI-H522, in the experiment with HOP-62, with K562 and with OVCAR-4 was > 100 µM (inactive) in each case. In addition, the GI50 with OVCAR-5, in the experiment with TK-10, with KM12, with EKVX, with RXF 393 and in the experiment with SNB-19 was > 100 µM (inactive) each time. In addition, the GI50 in the experiment with HCT-15 was more than 100 µM; with IGROV-1, > 100 µM (inactive); in the experiment on M14 it was > 100 µM (inactive); with UACC-257 it was > 100 µM (inactive); in the experiment on CCRF-CEM, > 10 µM (inactive).
For `COC1C=C(Nc2cccc(Cl)c2)C(=O)C1` (configuration not stated), the GI50 was 45.8 µM (inactive) with SF-268; 36 µM (inactive) in the experiment with HL-60; 24.9 µM (inactive) in the experiment on NCI-H522; > 100 µM (inactive) with HOP-62; 41.6 µM (inactive) with K562; > 100 µM (inactive) in the experiment on OVCAR-4. The GI50 in the experiment on OVCAR-5 is 47.4 µM (inactive); in the experiment with TK-10, > 100 µM (inactive); with KM12, 71 µM (inactive); in the experiment with EKVX, 29.4 µM (inactive); in the experiment with RXF 393, 23.4 µM (inactive); with SNB-19, 64.3 µM (inactive). The GI50 in the experiment with IGROV-1 was > 100 µM (inactive); with M14, > 100 µM (inactive); with UACC-257, > 100 µM (inactive); in the experiment with CCRF-CEM it was 63.1 µM (inactive).
Take `COC(=O)C(CC(=O)c1ccccc1)c1ccccc1NC(C)=O` (configuration not stated): the GI50 in the experiment with SF-268, in the experiment with HL-60, in the experiment with NCI-H522, with RPMI-8226, with HOP-62 and with K562 was > 100 µM (inactive) throughout. Also, the GI50 in the experiment with OVCAR-4, in the experiment with OVCAR-5, in the experiment with TK-10, in the experiment with KM12, in the experiment on EKVX and in the experiment with SNB-19 was > 100 µM (inactive) throughout. Moreover, the GI50 with HCT-15 was more than 100 µM; with IGROV-1, > 100 µM (inactive); in the experiment on M14, > 100 µM (inactive); in the experiment with UACC-257, > 100 µM (inactive); with CCRF-CEM, > 100 µM (inactive).
With `CN(C)c1ccc(/C=C2\N=C(c3ccc(N)cc3)OC2=O)cc1`, the GI50 was > 100 µM (inactive) with SF-268; > 100 µM (inactive) with HL-60; > 100 µM (inactive) with NCI-H522; > 100 µM (inactive) in the experiment on RPMI-8226; > 100 µM (inactive) in the experiment with HOP-62; 38.8 µM (inactive) with K562. In addition, the GI50 in the experiment with OVCAR-4, in the experiment with OVCAR-5, with TK-10, in the experiment on KM12, in the experiment on EKVX and in the experiment with SNB-19 was > 100 µM (inactive) in each case. In addition, the GI50 in the experiment with HCT-15 was more than 100 µM; in the experiment with IGROV-1 it was > 100 µM (inactive); in the experiment on M14, > 100 µM (inactive); with UACC-257 it was > 100 µM (inactive); in the experiment with CCRF-CEM, > 100 µM (inactive).
With `N#CC(C(=O)CCC(=O)Nc1ccc(Cl)cc1)c1ccccc1Cl` (configuration not stated), the GI50 with SF-268 is 32.1 µM (inactive); with HL-60, > 100 µM (inactive); in the experiment with NCI-H522, > 100 µM (inactive); with RPMI-8226, > 100 µM (inactive); with K562, 18.4 µM (inactive); in the experiment on OVCAR-4 it was > 100 µM (inactive). Besides, the GI50 with OVCAR-5 was 50.5 µM (inactive); in the experiment with TK-10, > 100 µM (inactive); in the experiment with KM12 it was 43.1 µM (inactive); with EKVX, > 100 µM (inactive); in the experiment on SNB-19 it was > 100 µM (inactive); in the experiment with HCT-15, 21 µM. Besides, the GI50 is > 100 µM (inactive) in the experiment with IGROV-1, 47.8 µM (inactive) with M14, > 100 µM (inactive) in the experiment with UACC-257 and > 100 µM (inactive) in the experiment on CCRF-CEM.
For `Cc1cccc2c3ccc4c(c3n(C)c12)C(=O)C=CC4=O`, the GI50 with SF-268 is > 100 µM (inactive); in the experiment with HL-60 it was 17.1 µM (inactive); in the experiment on NCI-H522 it was > 100 µM (inactive); in the experiment with RPMI-8226, 32.8 µM (inactive); with HOP-62 it was > 100 µM (inactive); in the experiment on K562, > 100 µM (inactive). Moreover, the GI50 in the experiment with OVCAR-4, in the experiment with TK-10, in the experiment with KM12, in the experiment with EKVX, with SNB-19 and in the experiment with IGROV-1 was > 100 µM (inactive) each time. Besides, the GI50 in the experiment on M14 was > 100 µM (inactive); in the experiment on UACC-257, > 100 µM (inactive); with CCRF-CEM, 18.2 µM (inactive).
